Source: patent US8426429B2, “2-amino-quinazoline derivatives useful as inhibitors of β-secretase (BACE)” (Jansssen Pharmaceutica N.V., priority 2004, dated 2013)

Target: T1, β-secretase (BACE) (Homo sapiens, UniProt P56817)
T1 construct: purchased Panvera
Experiment: BACE FS1 % Inhibition Assay
Type: biochemical
Protocol: The following reagents were used in this assay: sodium acetate, PEG8000 (Sigma), DMSO, HEPES, FS1 substrate [[…]] […] The FS1-substrate stock solution was prepared in DMSO as a 10 mg/mL solution. The FS1-substrate working solution was prepared by diluting the 10 mg/mL stock solution with substrate assay buffer to a final concentration of 300 μg/mL. The β-secretase (BACE) working solution was prepared by diluting a 0.83 mg/mL BACE stock solution with enzyme assay buffer to a final concentration of 4 μg/mL. Test compounds were dissolved in DMSO to 10 mM. […] The screening procedure for this assay was as follows: 15 μL of BACE working solution was pipetted into each well of a 96-well plate. To each well was then pipetted 2 μL of test compound at the selected concentration. Test compound and BACE were then mixed with a pipettor and incubated for 20 min at room temperature. To each well was then added 10 μL of the FS1 substrate working solution. The plates were then incubated for 1 hour at room temperature. […] The procedure for the blank was as follows. 15 μL of assay buffer was pipetted into each well to be used as a blank control. To each well was then added 2 μL of vehicle and 10 μL of FS1-substrate working solution. The plates were then incubated for 1 hour at room temperature. […] The procedure for the positive control was as follows: 15 μL of BACE working solution was pipetted into each well to be used as a positive control. To each well was then pipetted 2 μL of vehicle. Vehicle and BACE were then mixed with a pipettor and incubated for 20 min at room temperature. To each well was then added 10 μL of the FS1 substrate working solution. The plates were then incubated for 1 hour at room temperature. […] For test compounds, % inhibition was determined at each concentration as follows: [formula]

T1 sequence (P56817 46-501): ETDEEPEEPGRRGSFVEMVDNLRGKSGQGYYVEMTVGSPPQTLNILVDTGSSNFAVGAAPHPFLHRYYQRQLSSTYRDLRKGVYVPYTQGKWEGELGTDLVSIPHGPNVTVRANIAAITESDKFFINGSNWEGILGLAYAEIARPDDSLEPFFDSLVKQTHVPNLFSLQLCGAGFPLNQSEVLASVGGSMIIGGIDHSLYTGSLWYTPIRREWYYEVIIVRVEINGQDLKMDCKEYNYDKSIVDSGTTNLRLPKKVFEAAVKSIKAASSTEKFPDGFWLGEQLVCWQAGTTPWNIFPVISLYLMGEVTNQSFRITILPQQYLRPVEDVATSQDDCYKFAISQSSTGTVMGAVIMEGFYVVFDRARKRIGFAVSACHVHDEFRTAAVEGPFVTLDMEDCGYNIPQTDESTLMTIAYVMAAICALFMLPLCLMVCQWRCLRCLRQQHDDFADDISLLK

SMILES | % Inhibition (FS) (3 μM test compound) | % Inhibition (FS) (10 μM test compound) | % Inhibition (FS) (0.3 μM test compound) | % Inhibition (FS) (1 μM test compound) | also measured
COC(=O)C1CCCC(N(C)C(=O)CCC(C2CCCCC2)N2Cc3cc(Oc4ccccc4)ccc3N=C2N)C1 (mixture of isomers) [Compound 777] | – | – | – | – | % Inhibition (FS) (0.3 μM compound, FS1 substrate): 38%; % Inhibition (FS) (1 μM compound, FS1 substrate): 97%
CCCC(CCCC(=O)N(C)C1CCCCC1)N1Cc2cc(Oc3ccccc3)ccc2N=C1N (stereo not drawn) [Compound 90] | 106% | 124% | – | – | –
CCCC(CCCC(=O)NC1CCCCC1)N1Cc2cc(Oc3ccccc3)ccc2N=C1N (stereo not drawn) [Compound 91] | 68% | 117% | – | – | –
CCCC(CCCC(=O)N(C)C1CCN(C)CC1)N1Cc2cc(Oc3ccccc3)ccc2N=C1N (stereo not drawn) [Compound 106] | 103% | 114% | – | – | –
NC1=Nc2ccc(Oc3ccccc3)cc2CN1CCCCNC(=O)C1CCCCC1 [Compound 115] | 40% | 105% | – | – | –
NC1=Nc2ccc(Oc3ccccc3)cc2CN1CCCCNC(=O)C1CCCC1 [Compound 116] | 39% | 81% | – | – | –
CN(C(=O)c1ccc2c(c1)C(N1Cc3cc(Oc4ccccc4)ccc3N=C1N)c1ccccc1-2)C1CCCCC1 (stereo not drawn) [Compound 118] | – | – | – | – | % Inhibition (FS) (3 μM test compound, 3 µM): 48%; % Inhibition (FS) (10 μM test compound, 10 µM): 91%
NC1=Nc2ccc(Oc3ccccc3)cc2CN1C1CCN(C(=O)C2CCCCC2)C1 (stereo not drawn) [Compound 119] | 42% | 75% | – | – | –
NC1=Nc2ccc(Oc3ccccc3)cc2CN1C1CCN(C(=O)C2CCCC2)C1 (stereo not drawn) [Compound 120] | <30% | 34% | – | – | –
NC1=Nc2ccc(Oc3ccccc3)cc2CN1C1c2ccccc2-c2cccc(C(=O)N(C3CCCCC3)C3CCCCC3)c21 (stereo not drawn) [Compound 124] | 56% | 67% | – | – | –
CCCC(CCC(=O)NC1CCCCCC1)N1Cc2cc(Oc3ccccc3)ccc2N=C1N (stereo not drawn) [Compound 128] | 97% | 108% | – | – | –
CCCC(CCC(=O)NC1CCCCC1)N1Cc2cc(Oc3ccccc3)ccc2N=C1N (stereo not drawn) [Compound 129] | 113% | 113% | – | – | –
NC1=Nc2ccc(Oc3ccccc3)cc2CN1C(c1ccccc1)c1cccc(C(=O)N(C2CCCCC2)C2CCCCC2)c1 (stereo not drawn) [Compound 132] | 54% | 118% | – | – | –
CCCC(CCCC(=O)NC1CCCCCC1)N1Cc2cc(Oc3ccccc3)ccc2N=C1N (stereo not drawn) [Compound 137] | 82% | 107% | – | – | –
NC1=Nc2ccc(Oc3ccccc3)cc2CN1CCNC(=O)C1CC1c1ccccc1 (stereo not drawn) [Compound 139] | <30% | 61% | – | – | –
CCCCCCCCCC(=O)NCCN1Cc2cc(Oc3ccccc3)ccc2N=C1N [Compound 142] | <30% | 38% | – | – | –
NC1=Nc2ccc(Oc3ccccc3)cc2CN1CCCNC(=O)C1CC1 [Compound 143] | <30% | 32% | – | – | –
NC1=Nc2ccc(Oc3ccccc3)cc2CN1CCCNC(=O)C1CCC1 [Compound 144] | 39% | 59% | – | – | –
CN(C(=O)c1ccc2c(c1)C(N1Cc3cc(Oc4ccccc4)ccc3N=C1N)CC2)C1CCCCC1 (stereo not drawn) [Compound 145] | <30% | 37% | – | – | –
COc1ccc2c(c1)C(CC(=O)N(C)C1CCCCC1)CC2N1Cc2cc(Oc3ccccc3)ccc2N=C1N (stereo not drawn) [Compound 146] | <30% | 39% | – | – | –
NC1=Nc2ccc(Oc3ccccc3)cc2CN1C1c2ccccc2-c2c(C(=O)N(C3CCCCC3)C3CCCCC3)cccc21 (stereo not drawn) [Compound 147] | <30% | 71% | – | – | –
CCCCCC(CCC(=O)NC1CCCCCC1)N1Cc2cc(Oc3ccccc3)ccc2N=C1N (stereo not drawn) [Compound 150] | 90% | – | <30% | <30% | –
NC1=Nc2ccc(Oc3ccccc3)cc2CN1CCNC(=O)CCc1ccccc1 [Compound 155] | <30% | 49% | – | – | –
CC(C)(C)c1ccc(C(=O)NCCN2Cc3cc(Oc4ccccc4)ccc3N=C2N)cc1 [Compound 156] | <30% | 40% | – | – | –

SMILES | % Inhibition (FS) (3 μM test compound) | % Inhibition (FS) (10 μM test compound) | % Inhibition (FS) (0.3 μM test compound) | % Inhibition (FS) (1 μM test compound) | also measured
CCCCc1ccc(C(=O)NCCN2Cc3cc(Oc4ccccc4)ccc3N=C2N)cc1 [Compound 157] | <30% | 50% | – | – | –
CN(C(=O)c1cccc(CN2Cc3cc(-c4cn[nH]c4)ccc3N=C2N)c1)C1CCCCC1 [Compound 161] | <30% | – | <30% | <30% | –
CN(C(=O)c1cccc(CN2Cc3cc(-c4ccc(C(N)=O)cc4)ccc3N=C2N)c1)C1CCCCC1 [Compound 162] | <30% | – | <30% | <30% | –
CN(C(=O)c1cccc(CN2Cc3cc(-c4cccc(C(=O)O)c4)ccc3N=C2N)c1)C1CCCCC1 [Compound 163] | <30% | – | <30% | 33% | –
CC(=O)Nc1cccc(-c2ccc3c(c2)CN(Cc2cccc(C(=O)N(C)C4CCCCC4)c2)C(N)=N3)c1 [Compound 166] | 74% | – | <30% | 37% | –
CN(C(=O)c1cccc(CN2Cc3cc(-c4ccncc4)ccc3N=C2N)c1)C1CCCCC1 [Compound 168] | <30% | – | <30% | <30% | –
CN(C(=O)c1cccc(CN2Cc3cc(-c4cccc(-c5ccccc5)c4)ccc3N=C2N)c1)C1CCCCC1 [Compound 171] | 42% | – | <30% | 31% | –
CN(C)Cc1ccccc1-c1ccc2c(c1)CN(Cc1cccc(C(=O)N(C)C3CCCCC3)c1)C(N)=N2 [Compound 172] | <30% | – | <30% | <30% | –
CN(C(=O)c1cccc(CN2Cc3cc(-c4ccc5[nH]ccc5c4)ccc3N=C2N)c1)C1CCCCC1 [Compound 175] | 37% | – | <30% | <30% | –
NC1=Nc2ccc(Oc3ccccc3)cc2CN1CCC(=O)N(C1CCCCC1)C1CCCCC1 [Compound 180] | 77% | – | <30% | <30% | –
CC(C)N(C(=O)CCN1Cc2cc(Oc3ccccc3)ccc2N=C1N)C(C)C [Compound 181] | 32% | – | <30% | <30% | –
CCCCCC1CCC(C(=O)NCCN2Cc3cc(Oc4ccccc4)ccc3N=C2N)CC1 (stereo not drawn) [Compound 182] | 38% | – | <30% | <30% | –
CC(C)(C)C1CCC(C(=O)NCCN2Cc3cc(Oc4ccccc4)ccc3N=C2N)CC1 (stereo not drawn) [Compound 184] | 31% | – | <30% | <30% | –
CC1CCC(N(C(=O)c2cccc(CN3Cc4cc(Oc5ccccc5)ccc4N=C3N)c2)C2CCC(C)CC2)CC1 (stereo not drawn) [Compound 187] | 39% | – | <30% | <30% | –
NC1=Nc2ccc(Oc3ccccc3)cc2CN1Cc1cccc(C(=O)NCCc2ccc(S(N)(=O)=O)cc2)c1 [Compound 188] | <30% | – | <30% | <30% | –
CN(C)c1ccc(C(=O)NCCN2Cc3cc(Oc4ccccc4)ccc3N=C2N)cc1 [Compound 189] | <30% | – | <30% | <30% | –
CC(C)CC(=O)NCCN1Cc2cc(Oc3ccccc3)ccc2N=C1N [Compound 190] | 101% | – | 51% | 86% | –
CC1CCC(C(=O)NCCN2Cc3cc(Oc4ccccc4)ccc3N=C2N)CC1 (stereo not drawn) [Compound 191] | 88% | – | <30% | 46% | –
NC1=Nc2ccc(Oc3ccccc3)cc2CN1Cc1cccc(C(=O)N2CCC3CCCCC3C2)c1 (stereo not drawn) [Compound 193] | 67% | – | <30% | 34% | –
CCCCCC1CC2(C(=O)NCCN3Cc4cc(Oc5ccccc5)ccc4N=C3N)CCC1CC2 (stereo not drawn) [Compound 194] | 38% | – | <30% | 42% | –
NC1=Nc2ccc(Oc3ccccc3)cc2CN1CCNC(=O)c1ccc(-c2ccccc2)cc1 [Compound 195] | <30% | – | <30% | <30% | –
CCCN(CC1CC1)C(=O)c1cccc(CN2Cc3cc(Oc4ccccc4)ccc3N=C2N)c1 [Compound 197] | 32% | – | <30% | <30% | –
CCCCC(CC)CN(CC(CC)CCCC)C(=O)c1cccc(CN2Cc3cc(Oc4ccccc4)ccc3N=C2N)c1 (stereo not drawn) [Compound 198] | <30% | – | <30% | <30% | –
